# Experimental data: ChEMBL document CHEMBL3045675, “Synthesis and structure-activity relationships of some pesticides with an alpha-amino acid function” (Biochim Biophys Acta, 1997)
# Activity calls are given as the source filed them. The calls are words filed in the database; no cut-off is given here.
# What was measured:
# [1] = system: Vicia faba; assay: Herbicidal activity against Vicia faba assessed as inhibition of 1 mM of [3H]sucrose uptake in leaf at 1 mM after 1 hr by liquid scintillation counting analysis relative to untreated control; type: functional, organism-based
# [2] = system: Vicia faba; assay: Herbicidal activity against Vicia faba assessed as 1 mM of L-[3H]theronine uptake in leaf at 1 mM after 1 hr by liquid scintillation counting analysis relative to untreated control; type: functional
# [3] = system: Vicia faba; assay: Herbicidal activity against Vicia faba assessed as 1 mM of L-[3H]theronine uptake in leaf at 10 mM after 1 hr by liquid scintillation counting analysis relative to untreated control; type: functional
# [4] = system: Vicia faba; assay: Herbicidal activity against Vicia faba assessed as 1 mM of L-[3H]theronine uptake in leaf at 5 mM after 1 hr by liquid scintillation counting analysis relative to untreated control; type: functional
# [5] = system: Vicia faba; assay: Herbicidal activity against Vicia faba assessed as inhibition of 1 mM of [U-14C]theronine uptake in mesophyll after 1 hr by autoradiographic analysis relative to untreated control; type: functional, organism-based
# [6] = system: Vicia faba; assay: Herbicidal activity against Vicia faba assessed as inhibition of 1 mM of [U-14C]theronine uptake in veins after 1 hr by autoradiographic analysis relative to untreated control; type: functional, organism-based
# [7] = system: Vicia faba; assay: Herbicidal activity against Vicia faba assessed as 1 mM of L-[3H]lysine uptake in leaf at 1 mM after 1 hr by liquid scintillation counting analysis relative to untreated control; type: functional, organism-based
# [8] = system: Vicia faba; assay: Herbicidal activity against Vicia faba assessed as inhibition of 1 mM of L-[3H]theronine uptake in leaf at 1 mM after 1 hr by liquid scintillation counting analysis relative to untreated control; type: functional
# [9] = Solubility in organic solvents; type: physicochemical
# [10] = system: Vicia faba; assay: Herbicidal activity against Vicia faba assessed as 1 mM of L-[3H]theronine uptake in leaf at 5 uM after 1 hr by liquid scintillation counting analysis relative to untreated control; type: functional
# [11] = Solubility in hydrochloric acid; type: physicochemical
# [12] = system: Vicia faba; assay: Herbicidal activity against Vicia faba assessed as change in 10 mM sucrose-induced depolarization of transmembrane potential difference in mesophyll cells at 2.5 mM after 1 hr by electrophysiological assay relative to control; type: functional, organism-based
# [13] = system: Vicia faba; assay: Herbicidal activity against Vicia faba assessed as decrease in 1 mM of L-[3H]lysine uptake in leaf at pH 3.5 at 2.5 mM after 1 hr by liquid scintillation counting analysis; type: functional, organism-based
# [14] = system: Vicia faba; assay: Herbicidal activity against Vicia faba assessed as decrease in 1 mM of L-[3H]glutamate uptake in leaf at pH 8 at 2.5 mM after 1 hr by liquid scintillation counting analysis; type: functional, organism-based
# [15] = Octanol-water partition coefficient, log KOW of the compound; type: physicochemical; conditions: read-out: log KOW
# [16] = system: Vicia faba; assay: Herbicidal activity against Vicia faba assessed as inhibition of 1 mM of L-[3H]threonine uptake in leaf at pH 4 at 2.5 mM after 1 hr by liquid scintillation counting analysis; type: functional
# [17] = system: Vicia faba; assay: Herbicidal activity against Vicia faba assessed as decrease in 1 mM of L-[3H]lysine uptake in leaf at pH 8 at 2.5 mM after 1 hr by liquid scintillation counting analysis; type: functional, organism-based
# [18] = system: Vicia faba; assay: Herbicidal activity against Vicia faba assessed as 1 mM of L-[3H]theronine uptake in leaf at 20 uM after 1 hr by liquid scintillation counting analysis relative to untreated control; type: functional
# [19] = system: Vicia faba; assay: Herbicidal activity against Vicia faba assessed as inhibition of 1 mM of L-[3H]lysine uptake in leaf at pH 4 at 2.5 mM after 1 hr by liquid scintillation counting analysis; type: functional
# [20] = system: Vicia faba; assay: Herbicidal activity against Vicia faba assessed as 1 mM of L-[3H]glutamate uptake in leaf at 1 mM after 1 hr by liquid scintillation counting analysis relative to untreated control; type: functional
# [21] = Solubility in water; type: physicochemical; conditions: buffer
# [22] = system: Vicia faba; assay: Herbicidal activity against Vicia faba assessed as 1 mM of L-[3H]theronine uptake in leaf at 10 uM after 1 hr by liquid scintillation counting analysis relative to untreated control; type: functional
# [23] = system: Vicia faba; assay: Herbicidal activity against Vicia faba assessed as change in 12 mM KCl-induced depolarization of transmembrane potential difference in mesophyll cells at 2.5 mM after 1 hr by electrophysiological assay; type: functional, organism-based
# [24] = system: Vicia faba; assay: Herbicidal activity against Vicia faba assessed as inhibition of threonine uptake; type: functional, organism-based; conditions: read-out: Ki(app)
# [25] = system: Vicia faba; assay: Herbicidal activity against Vicia faba assessed as reduction in 10 mM threonine-induced depolarization of transmembrane potential difference in mesophyll cells at 2.5 mM after 1 hr by electrophysiological assay relative to control; type: functional, organism-based
# [26] = system: Vicia faba; assay: Herbicidal activity against Vicia faba assessed as inhibition of 1 mM of L-[3H]glutamate uptake in leaf at pH 4 at 2.5 mM after 1 hr by liquid scintillation counting analysis; type: functional
# [27] = system: Vicia faba; assay: Herbicidal activity against Vicia faba assessed as reduction in 10 mM threonine-induced depolarization of transmembrane potential difference in mesophyll cells at 1 mM after 1 hr by electrophysiological assay (reference value: 27.9 +/- 12.7 mV); type: functional
# [28] = system: Vicia faba; assay: Herbicidal activity against Vicia faba assessed as change in 10 mM sucrose-induced depolarization of transmembrane potential difference in mesophyll cells at 1 mM after 1 hr by electrophysiological assay (reference value: 9.2 +/- 7.1 mV); type: functional
# [29] = system: Vicia faba; assay: Herbicidal activity against Vicia faba assessed as change in transmembrane potential difference in mesophyll cells at 1 mM after 1 hr by electrophysiological assay (reference value: - 154 +/- 13.2 mV); type: functional
# [30] = system: Vicia faba; assay: Herbicidal activity against Vicia faba assessed as change in 12 mM KCl-induced depolarization of transmembrane potential difference in mesophyll cells at 1 mM after 1 hr by electrophysiological assay; type: functional, organism-based
# [31] = system: Vicia faba; assay: Herbicidal activity against Vicia faba assessed as inhibition of 1 mM of [U-14C]theronine loading in phloem after 1 hr by autoradiographic analysis relative to untreated control; type: functional, organism-based
compound,measurement,setting,value
N[C@@H](CCCCNC(=O)COc1ccc([N+](=O)[O-])cc1)C(=O)O [L-LYSINE-4-NITROPHENOXYACETICACID],inhibition,[1],inactive
N[C@@H](CCCCNC(=O)COc1ccc(Cl)cc1)C(=O)O [L-LYSINE-4-CHLOROPHENOXYACETIC ACID],inhibition,[1],inactive
N[C@@H](CCC(=O)O)C(=O)O [GLUTAMIC ACID],Activity,[2],96.7%
same,Activity,[3],67.2%
same,Activity,[4],76.2%
N[C@@H](CCCCNC(=O)COc1ccccc1)C(=O)O [L-LYSINE-PHENOXYACETIC ACID],inhibition,[5],Active
same,inhibition,[6],Active
same,inhibition,[7],Active
same,inhibition,[1],inactive
CC(C)[C@H](N)C(=O)O [VALINE],Activity,[2],99.2%
same,Activity,[3],63.7%
same,Activity,[4],77.4%
N[C@@H](CCCCNC(=O)COc1ccc(Cl)cc1Cl)C(=O)O,inhibition,[8],Active
same,solubility,[9],Insoluble
same,Activity,[10],91.8%
same,solubility,[11],soluble
same,Activity,[12],inactive
same,Activity,[13],inactive
same,Activity,[14],Active
same,logP,[15],-0.49
same,inhibition (INH),[16],79%
same,Activity,[17],Active
same,Activity,[18],80.7%
same,inhibition,[7],Active
same,inhibition (INH),[19],81%
same,inhibition,[1],inactive
same,inhibition,[20],Active
same,solubility,[21],soluble
same,Activity,[22],91%
same,Activity,[23],inactive
same,Ki,[24],500 µM
same,Activity,[25],inactive
same,inhibition (INH),[26],51%
Cc1cc(Cl)ccc1OCC(=O)NCCCC[C@H](N)C(=O)O [L-LYSINE-2-METHYL-4-CHLOROROPHENOXYACETIC ACID],inhibition,[8],Active
same,solubility,[9],Insoluble
same,solubility,[11],soluble
same,logP,[15],-0.59
same,inhibition,[1],inactive
same,solubility,[21],soluble
NCCCC[C@H](N)C(=O)O [LYSINE],Activity,[2],97%
same,Activity,[3],104%
same,Activity,[4],99.6%
Nc1ccc(OCC(=O)NCCCC[C@H](N)C(=O)O)cc1,inhibition,[5],Active
same,inhibition,[8],inactive
same,solubility,[9],Insoluble
same,solubility,[11],soluble
same,logP,[15],-3
same,inhibition,[6],Active
same,inhibition,[1],inactive
same,solubility,[21],soluble
N[C@@H](CCCCNC(=O)CCCOc1ccc(Cl)cc1Cl)C(=O)O,inhibition,[8],Active
same,solubility,[9],Insoluble
same,solubility,[11],soluble
same,logP,[15],-0.49
same,Activity,[27],10.2 mV
same,inhibition,[7],Active
same,inhibition,[1],inactive
same,Activity,[28],10.1 mV
same,inhibition,[20],Active
same,solubility,[21],soluble
same,Activity,[29],-161.9 mV
same,Activity,[30],inactive
same,inhibition,[31],Active
"N[C@H](CCCCNC(=O)COc1ccc(Cl)cc1Cl)C(=O)O [D-LYSINE-2,4-DICHLOROPHENO-XYACETIC ACID]",inhibition,[5],inactive
same,Activity,[2],74.2%
same,inhibition,[6],inactive
